Test results published in patent US20020035264A1, “Ophthalmic formulation of a selective cyclooxygenase-2 inhibitory drug” (priority 2000, published 2002).
Entries after “also recorded” stand apart in the source; their conditions may differ.

Test: Ocular versus oral delivery of valdecoxib nanoparticle suspensions; drug concentration in eye tissues and plasma by LC-MS
Format: in vivo, New Zealand white rabbits
Details: rabbit
Method: Oral and ophthalmic suspensions of valdecoxib nanoparticles were prepared. […] The two carrageenan excipients are both ι-carrageenans with slightly different chemical and physical properties.
Eighteen male New Zealand white rabbits weighing from 1.8-2.5 kg were provided as test animals and divided into three lots containing six rabbits each.
Selected eye tissues, aqueous humor, bulbar conjunctiva, cornea, eyelids, vitreous humor and sclera, were excised at the time of sacrifice, weighed directly into tared vials, solubilized and/or diluted as necessary, and analyzed by HPLC-MS. Just prior to sacrifice, 0.5 mL of a blood sample was collected from the ear central artery via a syringe, placed into a K2-EDTA vacutainer, mixed gently and stored on ice up to one hour prior to centrifuging to separate the plasma. The plasma was stored at −10° C. or colder until analysis.

[1] = four hours after administration, FIGS. 2 and 3

Cc1onc(-c2ccccc2)c1-c1ccc(S(N)(=O)=O)cc1 [valdecoxib, 4-[5-methyl-3-phenylisoxazol-4-yl]-benzenesulfonamide]
delivery of the drug to the eye (conjunctiva, cornea, aqueous humor concentration), ocular versus oral administration [1]: much more effective in delivering the drug to the eye than oral administration
systemic (plasma) concentration of the drug, ocular versus oral administration [1]: avoids the high systemic (plasma) concentration
concentration of the drug in the conjunctiva versus time, ocular versus oral delivery (single ocular dose 25 μL ophthalmic suspension per eye (about 0.1 mg) vs oral 0.5 mg/kg, 0.5, 2 and 4 hours, FIG. 1, 0.5 mg/kg): much higher initial concentration; also recorded: maintained this higher concentration over time
